Measured values as given in DBAASP.
In brackets after ≈: the same amount, converted by molar mass.

Tests used:
Assay in all cases: ≥ marks a high value that may be exact or a test limit, other limits are often not marked, values filed in µg/mL are converted to µM
[1] = system: Bacillus cereus NCLM 2156
[2] = system: Escherichia coli NCLM 2064
[3] = system: Pseudomonas aeruginosa ATCC 10145
[4] = system: Staphylococcus aureus ATCC 25923
[5] = system: Vibrio cholerae PL91
[6] = system: Bacillus cereus ATCC 11778
[7] = system: Escherichia coli ATCC 25922
[8] = system: Klebsiella pneumoniae ATCC 700603
[9] = system: Pseudomonas aeruginosa ATCC 27853
[10] = system: Salmonella enterica subsp. enterica serovar Enteritidis ATCC 13076
[11] = system: Serratia marcescens ATCC 21202
[12] = system: Staphylococcus aureus ATCC 29213
[13] = system: Streptococcus pyogenes ATCC 19615
[14] = system: Acinetobacter baumannii ATCC 15308
[15] = system: Citrobacter sp.
[16] = system: Enterobacter cloacae
[17] = system: Klebsiella pneumoniae
[18] = system: Pseudomonas aeruginosa ATCC 15442
[19] = system: Staphylococcus aureus
[20] = system: Streptococcus pneumoniae
[21] = system: Acinetobacter baumannii ATCC 19606
[22] = system: Acinetobacter baumannii Q13-0717
[23] = system: Campylobacter jejuni ATCC 33292
[24] = system: Campylobacter jejuni NCTC 11161
[25] = system: Campylobacter jejuni NCTC 11351
[26] = system: Campylobacter jejuni
[27] = system: Enterococcus faecalis JH-2-2
[28] = system: Escherichia coli K-12
[29] = system: Escherichia coli
[30] = system: Klebsiella pneumoniae NCTC 13442
[31] = system: Klebsiella pneumoniae Q14-0095
[32] = system: Klebsiella pneumoniae Q14-0285
[33] = system: Listeria monocytogenes NCTC 11994
[34] = system: Pseudomonas aeruginosa PAO1
[35] = system: Pseudomonas aeruginosa Q12-0535
[36] = system: Pseudomonas aeruginosa Q14-0208
[37] = system: Pseudomonas aeruginosa Q14-0890
[38] = system: Salmonella typhimurium SL1344
[39] = system: Staphylococcus aureus ATCC 33591
[40] = system: Staphylococcus aureus ATCC 6538
[41] = system: Staphylococcus aureus MRSA-15
[42] = system: Staphylococcus aureus NCTC 12493
[43] = system: Staphylococcus aureus RN4220
[44] = system: Staphylococcus aureus USA 300

Compound CC[C@H](C)[C@H](NC(=O)CN)C(=O)NCC(=O)N[C@@H](CO)C(=O)N[C@@H](CCSC)C(=O)N[C@@H](CC(C)C)C(=O)N[C@@H](CC(C)C)C(=O)NCC(=O)N[C@@H](CC(C)C)C(=O)N[C@@H](C)C(=O)N[C@@H](CCCCN)C(=O)N[C@@H](CC(N)=O)C(=O)N[C@H](C(=O)NCC(=O)N[C@@H](CCSC)C(=O)N[C@@H](CO)C(=O)N[C@@H](CC(C)C)C(=O)N[C@@H](CC(C)C)C(=O)N[C@@H](CC(N)=O)C(=O)N[C@@H](CCCCN)C(=O)N[C@@H](C)C(=O)N[C@@H](CCC(N)=O)C(=O)N[C@H]1CSSC[C@@H](C(=O)O)NC(=O)[C@H](CCCCN)NC(=O)CNC(=O)[C@H](CO)NC(=O)[C@H]([C@@H](C)CC)NC(=O)[C@H](CCCCN)NC1=O)C(C)C [GIGSMLLGLAKNVGMSLLNKAQCKISGKC] has an MIC [1] of at least 51.1 µM, an MIC [2] of 13.6 µM (≈ 40 µg/mL) and an MIC [3] of at least 34.1 µM. It also gave an MIC [4] of over 51.1 µM and an MIC [5] of at least 51.1 µM.

With CC(C)C[C@H](NC(=O)[C@H](CC(C)C)NC(=O)[C@H](CC(=O)O)NC(=O)[C@H](CC(N)=O)NC(=O)[C@H](CC(C)C)NC(=O)[C@H](CC(C)C)NC(=O)[C@H](CC(N)=O)NC(=O)CNC(=O)[C@@H](NC(=O)[C@H](CC(C)C)NC(=O)[C@@H]1CCCN1C(=O)[C@H](CC(C)C)NC(=O)[C@@H](N)C(C)C)C(C)C)C(=O)NCC(=O)N[C@@H](CCCCN)C(=O)O [VLPLVGNLLNDLLGK] the MIC [6] was at least 63.4 µM, the MIC [7] was over 63.4 µM and the MIC [8] was over 63.4 µM. The MIC [9] was over 63.4 µM, the MIC [10] was at least 63.4 µM and the MIC [11] was at least 63.4 µM. For the same compound, the MIC [12] was over 63.4 µM and the MIC [13] was at least 63.4 µM.

CC[C@H](C)[C@H](NC(=O)[C@H](CC(C)C)NC(=O)CNC(=O)CNC(=O)[C@H](CC(C)C)NC(=O)[C@@H](N)Cc1ccccc1)C(=O)N[C@@H](CCCCN)C(=O)N1CCC[C@H]1C(=O)N[C@@H](Cc1c[nH]c2ccccc12)C(=O)N[C@@H](Cc1c[nH]c2ccccc12)C(=O)N1CCC[C@H]1C(=O)N[C@@H](Cc1c[nH]c2ccccc12)C(=O)N[C@@H](CCCN=C(N)N)C(=O)N[C@@H](CCCN=C(N)N)C(N)=O [FLGGLIKPWWPWRR] gave an MIC [14] of at least 69 µM, an MIC [15] of at least 138 µM and an MIC [16] of at least 138 µM. For the same compound, the MIC [7] was 17.2 µM (≈ 31.2 µg/mL), the MIC [17] was over 138 µM and the MIC [18] was at least 34.5 µM. For the same compound, the MIC [4] was 17.2 µM (≈ 31.2 µg/mL), the MIC [19] was 17.2 µM (≈ 31.2 µg/mL) and the MIC [20] was 17.2 µM (≈ 31.2 µg/mL).

Work on CC[C@H](C)[C@H](NC(=O)[C@H](CCCCN)NC(=O)[C@H](CO)NC(=O)[C@H](Cc1c[nH]c2ccccc12)NC(=O)[C@H](CCCN=C(N)N)NC(=O)[C@H](CC(N)=O)NC(=O)[C@H](CCCN=C(N)N)NC(=O)[C@H](CCCN=C(N)N)NC(=O)[C@@H]1CCCN1C(=O)[C@@H](N)CC(C)C)C(=O)N[C@@H](Cc1c[nH]c2ccccc12)C(=O)N[C@@H](CCCCN)C(=O)N[C@@H](CCCCN)C(=O)N[C@H](C(=O)N[C@H](C(=O)N[C@H](C(=O)N[C@H](C(=O)N[C@@H](Cc1ccccc1)C(=O)N[C@@H](CO)C(=O)O)C(C)C)[C@@H](C)O)C(C)C)C(C)C [LPRRNRWSKIWKKVVTVFS] yielded an MIC [21] of 9.42 µM (≈ 22.6 µg/mL), an MIC [22] of 1.67 µM (≈ 4 µg/mL) and an MIC [23] of 1.67 µM (≈ 4 µg/mL). For the same compound, the MIC [24] was 1.67 µM (≈ 4 µg/mL), the MIC [25] was 26.7 µM (≈ 64 µg/mL) and the MIC [26] was 26.7 µM (≈ 64 µg/mL). For the same compound, the MIC [27] was 13.3 µM (≈ 32 µg/mL), the MIC [28] was 13.3 µM (≈ 32 µg/mL) and the MIC [29] was 26.7 µM (≈ 64 µg/mL). For the same compound, the MIC [8] was 6.66 µM (≈ 16 µg/mL), the MIC [30] was 6.66 µM (≈ 16 µg/mL) and the MIC [31] was 13.3 µM (≈ 32 µg/mL). The MIC [32] was 6.66 µM (≈ 16 µg/mL), the MIC [33] was 13.3 µM (≈ 32 µg/mL) and the MIC [9] was 26.7 µM (≈ 64 µg/mL). It also gave an MIC [34] of 13.3 µM (≈ 32 µg/mL), an MIC [35] of 26.7 µM (≈ 64 µg/mL) and an MIC [36] of 6.66 µM (≈ 16 µg/mL). For the same compound, the MIC [37] was 13.3 µM (≈ 32 µg/mL), the MIC [38] was 13.3 µM (≈ 32 µg/mL) and the MIC [39] was 6.66 µM (≈ 16 µg/mL). It also gave an MIC [40] of 13.3 µM (≈ 32 µg/mL), an MIC [41] of 13.3 µM (≈ 32 µg/mL) and an MIC [42] of 6.66 µM (≈ 16 µg/mL). It also gave an MIC [43] of 13.3 µM (≈ 32 µg/mL) and an MIC [44] of 3.33 µM (≈ 8 µg/mL).
